Test results as given in patent US9346832B2, “Gold complexes for use in the treatment of cancer” (University of Kwazulu-Natal, priority 2010, dated 2016).
“Also recorded” adds a separate entry of the source. Where two headings read alike, the source gives them in different places.

Legend:
[1] = test system: 60 human cancer cell lines; assay: NCI-60 one-dose screen; type: cell-based; settings: single dose 10 μM
Method: The gold(III) complexes of this invention were screened by the National Cancer Institute (NCI, USA) against their panel of 60 different human cancer cell lines. These screens initially entail a one-dose test for the compound at a high concentration (10 μM; e.g. FIGS. 5, 6 and 7). Compounds with a good cytotoxicity profile in the one-dose screen are then subjected to a five-dose screen for the full panel of sixty human cancer cell lines (the so-called 5-dose NCI-60 screen). In the full five-dose screen, the compound concentration is varied in five doses from 10^−8 M to 10^−4 M in order to establish a dose-response function of percentage cell growth versus the concentration of the test agent. […] Similar data will shortly be available for compounds 1.1Y^1b and 1.5Y^1a as these derivatives are in 5-dose screens currently at the NCI.
The results of one-dose NCI-60 screens are noteworthy and merit some discussion as they quickly indicate activity profiles, cell-line specificity, and general cytotoxicity for the test agents across multiple human cancer cell lines. FIGS. 5, 6, and 7 set out the one-dose screening results for MA_AuPr (FIG. 5), KA_AumacroPr (FIG. 6), and KA_AuMelmPr (FIG. 7) obtained by the NCI. These three compounds are the parent derivatives that are representative of the three new types of gold(III) Schiff base chelate relevant to this invention. All other compounds synthesized as part of this invention have been similarly analyzed.

topoisomerase II = topoisomerase II (Homo sapiens, UniProt P11388); assay: Topoisomerase II DNA cleavage/relaxation assay, supercoiled plasmid DNA, EB gel (TopoGEN protocol); type: biochemical
Chain of topoisomerase II (P11388 whole entry): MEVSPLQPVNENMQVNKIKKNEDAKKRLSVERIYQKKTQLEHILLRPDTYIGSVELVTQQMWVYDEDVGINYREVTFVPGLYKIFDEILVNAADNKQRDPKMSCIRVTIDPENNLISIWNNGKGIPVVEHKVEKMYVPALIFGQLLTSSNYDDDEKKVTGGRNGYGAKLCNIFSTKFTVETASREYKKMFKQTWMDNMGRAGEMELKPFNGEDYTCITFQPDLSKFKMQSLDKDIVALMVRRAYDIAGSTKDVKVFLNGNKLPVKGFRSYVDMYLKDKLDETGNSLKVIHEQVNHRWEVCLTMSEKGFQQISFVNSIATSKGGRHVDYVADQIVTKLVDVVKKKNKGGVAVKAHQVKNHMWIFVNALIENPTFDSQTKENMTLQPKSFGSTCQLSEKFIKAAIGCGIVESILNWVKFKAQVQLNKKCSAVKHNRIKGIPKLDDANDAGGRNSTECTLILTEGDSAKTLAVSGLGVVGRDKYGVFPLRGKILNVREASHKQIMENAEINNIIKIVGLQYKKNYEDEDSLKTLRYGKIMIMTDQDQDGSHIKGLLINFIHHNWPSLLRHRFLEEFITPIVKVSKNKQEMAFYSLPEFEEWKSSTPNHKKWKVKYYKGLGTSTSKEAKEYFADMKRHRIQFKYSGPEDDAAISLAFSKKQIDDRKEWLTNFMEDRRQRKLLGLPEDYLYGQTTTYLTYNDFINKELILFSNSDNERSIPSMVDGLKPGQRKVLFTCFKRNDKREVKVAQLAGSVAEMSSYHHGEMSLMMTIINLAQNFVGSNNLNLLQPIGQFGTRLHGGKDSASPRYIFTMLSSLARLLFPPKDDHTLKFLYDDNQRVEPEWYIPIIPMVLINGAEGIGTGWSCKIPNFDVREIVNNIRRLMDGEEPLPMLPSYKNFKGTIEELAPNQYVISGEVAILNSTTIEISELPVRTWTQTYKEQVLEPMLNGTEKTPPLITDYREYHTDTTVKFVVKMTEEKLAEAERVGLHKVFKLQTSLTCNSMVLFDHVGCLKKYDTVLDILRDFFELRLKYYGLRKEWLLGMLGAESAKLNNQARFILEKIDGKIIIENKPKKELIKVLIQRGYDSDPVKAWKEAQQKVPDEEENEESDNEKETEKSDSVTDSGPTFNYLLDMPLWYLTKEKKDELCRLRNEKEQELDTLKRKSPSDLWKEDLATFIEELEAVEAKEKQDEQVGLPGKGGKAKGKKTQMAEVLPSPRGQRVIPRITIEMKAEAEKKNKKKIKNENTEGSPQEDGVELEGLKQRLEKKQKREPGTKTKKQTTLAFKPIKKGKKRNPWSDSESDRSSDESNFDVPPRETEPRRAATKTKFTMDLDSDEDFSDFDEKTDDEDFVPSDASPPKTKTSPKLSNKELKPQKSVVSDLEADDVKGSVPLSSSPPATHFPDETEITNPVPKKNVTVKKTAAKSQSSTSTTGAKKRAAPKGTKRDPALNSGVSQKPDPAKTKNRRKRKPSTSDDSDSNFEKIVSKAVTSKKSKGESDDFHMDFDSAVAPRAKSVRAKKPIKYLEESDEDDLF
Method: The compound MA_AuPr clearly targets topoisomerase II if the statistical analysis of the NCI data for a range of drugs shown in FIG. 13 is correct. MA_AuPr was therefore assayed for its action against topoisomerase II in vitro using TopoGEN's standard protocol over a wide range of test agent concentrations (0.005 to 500 μM) in order to obtain direct experimental proof for the apparent cellular target of the compound to ensure that a fundamental understanding of the mechanism of action of this new class of Au(III) compounds exists. These experiments were performed by the company TopoGEN and at the University of Central Florida. The DNA cleavage experiments were performed in vitro using purified topoisomerase I and II enzymes and supercoiled plasmid DNA as the substrate. The controls that were used in the experiment were linear marker DNA as well as reactions without the gold(III) complex and high concentrations of VP16. The compound VP16 (etoposide) is a commercially available DNA intercalator chemotherapeutic agent, widely used in the treatment of lung and testicular cancers as well as lymphomas. The choice of VP16 as a control is based on the fact that it is a poor topoisomerase II inhibitor, but is a powerful topoisomerase II poison which arrests the enzyme's cycle at the ternary drug-enzyme-DNA cleavage complex stage, leading to observation of linear DNA fragments upon SDS denaturation of the enzyme (i.e., work-up). Comparison of the VP16 results with the results of MA_AuPr would therefore give a good indication of whether the gold(III) chelate is an inhibitor or a poison.
Lane 1 of the gel (FIG. 14) is the control experiment with only supercoiled plasmid DNA present. The control contains no topoisomerase II and so the DNA supercoiled structure cannot be relaxed, as the topoisomerase II enzyme would usually do. […] At a higher concentration of the test agent (50 μM), both supercoiled plasmid DNA and linear cleavage products are observed. […] At very high concentrations (>500 μM), MA_AuPr behaves exclusively as a catalytic inhibitor of the enzyme.
The role of gold(III) in the efficacy of the compound was determined by modifying the structure of MA_AuPr by replacing the Au(III) cation with Pd(II) to afford MA_PdPr (the isoelectronic square planar coordination complex of known structure and geometry^31) and carrying out the DNA relaxation assay with topoisomerase II as before. The metal-free ligand (MA_H2PrLig) was tested under identical conditions to confirm that the mechanism of action is related to the intact structure of the metal chelate.

human cancer cell lines = assay: Cytotoxicity summary (NCI-60 or independent cytotoxicity screen), Scheme 19; type: cell-based
plasma protein = assay: Plasma protein binding; type: in vitro ADME; settings: LC-MS
Source text: This is why binding to DNA of the intact chelate occurs (FIGS. 14 and 20). However, it is noteworthy that hydrolysis of a Au(III)-Npyrrole bond is a reaction that may be catalyzed by enzymes in plasma and could account for the plasma instability of MA_AuPr.

[2] = test system: HepG2 human hepatocellular carcinoma cells; assay: HepG2 cytotoxicity / cell health parameters; type: cell-based
Source text: The data for MA_AuPr in Scheme 22 are consistent with a cytotoxic compound capable of inducing apoptosis (programmed cell death) and, indeed, a compound that performs better than the control drug. […] Other cell health parameters which respond are a loss of total cells per well (indicating toxicity due to necrosis, apoptosis or a reduction in cellular proliferation), an increase in nuclear area (indicating necrosis or G2 cell cycle arrest), an increase in cytochrome c release (implying activation of a signalling cascade leading to apoptosis). The latter is particularly relevant as we may rule out cell death by necrosis in the case of MA_AuPr. The mechanism of action of the compound thus leads to cell cycle arrest in the G2 phase and the induction of apoptosis (highly desirable for an anticancer drug). […] Since the compound induces cytochrome c release, cytotoxicity involves apoptosis.

[3] = type: in vivo, mouse
Method: FIG. 22 is a plot showing the mouse survival data as a function of metallodrug dose for MA_AuPr.
A single dose of the compound was administered by injection over the first week followed by two injections per week per mouse for a total period of 50 days.

[4] = test system: 3LL tumor (Lewis lung carcinoma); assay: 3LL tumor growth in black mice

Q: Which one-dose screening result [1] does the source give for `C1=NCCCN=Cc2ccc[n]2[Au+][n]2cccc21.[Cl-]` [MA_AuPr, 2,2′-{propane-1,3-diylbis[nitrilo(E)methylylidene]}bis(pyrrol-1-ido)gold(III) chloride] here?
A: leukemia, breast, and colon cancer cell lines are inherently more susceptible

Q: And the “concentration at which compound behaves exclusively as catalytic inhibitor” value (topoisomerase II)?
A: > 500 µM

Q: And the “action on topoisomerase II” value (topoisomerase II; compared with VP-16 (etoposide))?
A: both a poison and a catalytic topoisomerase II inhibitor

Q: And the “concentration of catalytic inhibition of topoisomerase II” value (topoisomerase II; supercoiled plasmid DNA not relaxed)?
A: 50 µM

Q: And the “concentration at which topoisomerase II poisoning (DNA cleavage induction) is observed” value (topoisomerase II; supercoiled plasmid DNA, linear cleavage products)?
A: 0.5 µM

Q: And the Cytotoxicity (human cancer cell lines)?
A: active

Q: And the Plasma protein binding (plasma protein)?
A: did not bind to plasma protein; also recorded: No binding - drug

Q: And the “Cytotoxicity (Hep-G2)” value [2]?
A: Strong positive

Q: What about the “Cytochrome C release MEC” value ([2]; HepG2) of the same compound?
A: 19 µM

Q: What about the “DNA structure MEC” value ([2]; HepG2) of the same compound?
A: >19 µM

Q: And the “Mitochondrial mass MEC” value ([2]; HepG2)?
A: 2.1 µM

Q: And the “Mitochondrial membrane potential MEC” value ([2]; HepG2)?
A: 6.2 µM

Q: What about the “Nuclear Area MEC” value ([2]; HepG2) of the same compound?
A: 6.2 µM

Q: And the “Cell Loss MEC” value ([2]; HepG2, minimum effective concentration)?
A: <0.23 µM

Q: And the AC50 ([2]; HepG2, read-out: Cell Loss AC50)?
A: 7.4 µM

Q: And the AC50 ([2]; HepG2, read-out: Cytochrome C release AC50)?
A: 33 µM

Q: What about the AC50 ([2]; HepG2, read-out: Membrane permeability AC50) of the same compound?
A: 16 µM

Q: And the AC50 ([2]; HepG2, read-out: Mitochondrial mass AC50)?
A: 41 µM

Q: And the AC50 ([2]; HepG2, read-out: Mitochondrial membrane potential AC50)?
A: > 500 µM

Q: What about the AC50 ([2]; HepG2, read-out: Nuclear Area AC50) of the same compound?
A: 17 µM

Q: And the “health and weight of mice” value ([3]; 1 to 30 μmol/kg, 50 days)?
A: remained healthy and showed no abnormal weight changes

Q: What about the acute toxicity ([3]; mice, injection, 1 to 30 μmol/kg doses) of the same compound?
A: > 30 μmol/kg/week

Q: And the chronic toxicity ([3]; mice, two injections per week, 50 days)?
A: > 60 μmol/kg/week

Q: And the “in vivo performance relative to cisplatin” value ([4]; 3LL tumors, 20 days)?
A: about 43%

Q: What about the “reduction of 3LL tumor growth rate relative to control” value ([4]; after 20 days, 20 μmol/kg twice weekly) of the same compound?
A: about 33%
